# Experimental data from article PMC2834284 (Journal of medicinal chemistry, 2010).
# “Also recorded” adds a separate entry of the source.
# Experiments:
# [1] = test system: Cryptococcus neoformans ATCC 90113; experiment: In vitro antimicrobial assay, C. neoformans; assay type: cell-based; conditions: ATCC90113, read-out: C. neoformans IC50
# [2] = test system: Plasmodium falciparum (W2 clone); experiment: In vitro antimalarial assay; assay type: cell-based; conditions: W2, 72 h, read-out: P. falciparum (W2 clone) IC50
# [3] = test system: Plasmodium falciparum (D6 clone); experiment: In vitro antimalarial assay; assay type: cell-based; conditions: for IC50: Plasmodium falciparum, D6, 72 h, read-out: P. falciparum (D6 clone) IC50
# [4] = test system: Plasmodium berghei infected mice; experiment: In vivo antimalarial assay, multiple oral dose; conditions: 3×5 mg/Kg
# [5] = test system: mice inoculated with P. berghei; experiment: Initial in vivo evaluation; conditions: 3×10 mg/kg P.O.
# [6] = test system: Mycobacterium intracellulare ATCC 23068; experiment: In vitro antimicrobial assay, M. intracellulare; assay type: cell-based; conditions: ATCC23068, read-out: M. intracellulare IC50
# [7] = test system: M. tuberculosis (H37Rv); experiment: In vitro activity against M. tuberculosis; assay type: cell-based; conditions: Mycobacterium tuberculosis, read-out: M. tuberculosis (H37Rv) MIC
# [8] = test system: Candida albicans ATCC 90028; experiment: In vitro antimicrobial assay, C. albicans; assay type: cell-based; conditions: ATCC90028, read-out: C. albicans IC50
# [9] = test system: rat neonatal microglia; experiment: Microglia LDH release; assay type: cell-based; conditions: for cytotoxicity (lactate dehydrogenase release) at highest concentration tested: 10 μM; for LDH LDH50: concentration causing 50% of maximal LDH release triggered by 0.1% Triton X-100
# [10] = Stability in aqueous solution; assay type: physicochemical; conditions: over twenty-four months, exposure to light, room temperature, 0.05 N HCl aqueous solution (20 mg/mL)
# [11] = test system: malarial parasites in mice; conditions: oral administration 2×100 μmol/Kg; cited from earlier work
# [12] = test system: Mycobacterium tuberculosis; conditions: cited from earlier work
# [13] = test system: Staphylococcus aureus; conditions: cited from earlier work
# [14] = test system: methicillin-resistant Staphylococcus aureus; conditions: cited from earlier work
# [15] = test system: GSK-3β; conditions: panel of CDK-1, PKA, CDK-5, MAPK, GSK-3α; cited from earlier work
# [16] = test system: CDK-5; conditions: panel of CDK-1, PKA, CDK-5, MAPK, GSK-3α; cited from earlier work
# [17] = in vitro; conditions: dog, MDCK-MDR1, pH 7.4
# [18] = test system: Plasmodium berghei infected mice; experiment: In vivo antimalarial assay, oral single dose
# [19] = test system: mice infected with malarial parasites; experiment: In vivo antimalarial assay, intraperitoneal administration; conditions: for toxicity / adverse reactions: i.p. 10×3 mg/kg in infected mice; for Cure (number of mice without parasitemia through day 28 post infection): of 5 mice
# [20] = test system: Vero cells; conditions: African green monkey
# [21] = i.p. 10×3 mg/kg, mean parasitemia in control group as 100%
compound,measurement,setting,value
"C[C@@H]1[C@H](O)[C@@H](C)/C=C/C=C/C=C/C=C/C=C/C=C/C=C/[C@H](O[C@@H]2O[C@H](C)[C@@H](O)[C@H](N)[C@@H]2O)C[C@@H]2O[C@](O)(C[C@@H](O)C[C@@H](O)[C@H](O)CC[C@@H](O)C[C@@H](O)CC(=O)O[C@H]1C)C[C@H](O)[C@H]2C(=O)O [Amphotericin B, reference compound]",IC50,[1],0.75 µg/mL
"C[C@@H]1CC[C@H]2[C@@H](C)C(=O)O[C@@H]3O[C@@]4(C)CC[C@@H]1[C@]32OO4 [Artemisinin, reference compound]",IC50,[2],0.008 µg/mL
CCN(CC)CCCC(C)Nc1ccnc2cc(Cl)ccc12 (centres unmarked) [Chloroquine],IC50,[3],0.016 µg/mL
same,IC50,[2],0.155 µg/mL
same,MST Days,[4],> 30 days
same,Inhibition of Parasitemia (%),[4]; day 5 post infection vs untreated controls,88%
same,Average % Parasitemia,[4]; day 7 post infection,4.5%
same,Average % Parasitemia,[4]; day 10 post infection,7.8%
same,Average % Parasitemia,[4]; day 14 post infection,13.5%
same,Average % Parasitemia,[4]; day 21 post infection,21.7%
same,Average % Parasitemia,[4]; day 28 post infection,39.3%
same,mean survival time,[5],14.3 days
"O=C(O)c1cn(C2CC2)c2cc(N3CCNCC3)c(F)cc2c1=O [Ciprofloxacin, reference compound]",IC50,[6],0.3 µg/mL
"O[C@]12C=C(c3nccc4c3[nH]c3ccccc34)[C@@H]3CCN(CCCC/C=C\CC1)C[C@@]31C[C@@H]3/C=C\CCCCN3[C@H]12 [Compound 1, manzamine A]",IC50,[3],0.0045 µg/mL
same,IC50,[2],0.008 µg/mL
same,MIC,[7],1.5 µg/mL
same,IC50,[8],2 µg/mL
same,IC50,[1],1.5 µg/mL
same,IC50,[6],0.35 µg/mL
same,cytotoxicity (lactate dehydrogenase release) at highest concentration tested,[9],minimal cytotoxicity
same,LDH LDH50,[9],>10 µM
same,stability (decomposition) in aqueous solution,[10],No significant decomposition
same,reduction in parasitemia,[11],90%
same,inhibition of Mycobacterium tuberculosis,[12],98-99%
same,IC50 against Staphylococcus aureus,[13],0.5 µg/mL
same,IC50 against methicillin-resistant Staphylococcus aureus,[14],0.7 µg/mL
same,inhibition of GSK-3β,[15],specifically inhibited
same,inhibition of CDK-5,[16],specifically inhibited
same,"efflux ratio at 2 h, 50 μM",[17],< 1
same,behavioral signs of toxicity,[18]; single oral dose 100 mg/kg,did not show any behavioral signs of toxicity
same,signs of toxicity,[18]; single oral dose 200 or 300 mg/kg,began to exhibit signs of toxicity beyond weight loss
same,Survival (number of animal survived day 28/total animal in group),[19]; i.p. 10×3 mg/kg,0/5
same,toxicity / adverse reactions,[19],toxic
same,%parasitemia suppression Day 5,[19]; [21],100%
same,Cure (number of mice without parasitemia through day 28 post infection),[19]; i.p. 10×3 mg/kg,0/5
"Oc1cccc2c1[nH]c1c(C3=C[C@@]4(O)CC/C=C\CCCCN5CC[C@@H]3[C@]3(CC6/C=C\CCCCN6[C@H]34)C5)nccc12 (some centres unmarked) [Compound 2, 8-hydroxymanzamine A]",IC50,[3],0.006 µg/mL
same,IC50,[2],0.008 µg/mL
same,IC50,[8],3.5 µg/mL
same,IC50,[1],2 µg/mL
same,IC50,[6],0.1 µg/mL
same,reduction in parasitemia,[11],90%
same,inhibition of Mycobacterium tuberculosis,[12],98-99%
same,Survival (number of animal survived day 28/total animal in group),[19]; i.p. 10×3 mg/kg,5/5
same,toxicity / adverse reactions,[19],mild reversible weight loss
same,MST (mean survival time),"[19]; i.p. 10×3 mg/kg, * death related to toxicity",> 28 days
same,%parasitemia suppression Day 5,[19]; [21],100%
same,%parasitemia suppression Day 7,[19]; [21],100%
same,Cure (number of mice without parasitemia through day 28 post infection),[19]; i.p. 10×3 mg/kg,4/5
"O[C@]12C=C(c3nccc4c3[nH]c3ccccc34)[C@@H]3CCN(CCCCCCCC1)C[C@@]31C[C@@H]3CCCCCCN3[C@H]12 [Compound 3, 15,16,32,33-tetrahydromanzamine A]",IC50,[3],0.082 µg/mL
"O[C@]12C=C(c3nccc4c3[nH]c3ccccc34)[C@@H]3CCN(CCCC/C=C\CC1)C[C@@]31C[C@@H]3CCCCCCN3[C@H]12 [Compound 5, Dihydromanzamine A]",IC50,[3],0.2 µg/mL
"CCCCn1c2ccccc2c2ccnc(C3=C[C@@]4(O)CC/C=C\CCCCN5CC[C@@H]3[C@]3(C[C@@H]6/C=C\CCCCN6[C@H]34)C5)c21 [Compound 6d, 9N-butylmanzamine A]",cytotoxicity (lactate dehydrogenase release) at highest concentration tested,[9],minimal cytotoxicity; also recorded: no toxicity
same,LDH LDH50,[9],>10 µM
"CC(C)CCn1c2ccccc2c2ccnc(C3=C[C@@]4(O)CC/C=C\CCCCN5CC[C@@H]3[C@]3(C[C@@H]6/C=C\CCCCN6[C@H]34)C5)c21 [Compound 6f, 9N-isopentylmanzamine A]",LDH LDH50,[9],>10 µM
"CC(C)(C)Cn1c2ccccc2c2ccnc(C3=C[C@@]4(O)CC/C=C\CCCCN5CC[C@@H]3[C@]3(C[C@@H]6/C=C\CCCCN6[C@H]34)C5)c21 [Compound 6g, 9N-neopentylmanzamine A]",cytotoxicity (lactate dehydrogenase release) at highest concentration tested,[9],minimal cytotoxicity; also recorded: no toxicity
same,LDH LDH50,[9],>10 µM
"CC(=O)Oc1cccc2c1[nH]c1c(C3=C[C@@]4(O)CC/C=C\CCCCN5CC[C@@H]3[C@]3(C[C@@H]6/C=C\CCCCN6[C@H]34)C5)nccc12 [Compound 9, 8-Acetoxymanzamine A]",IC50,[8],1.5 µg/mL
same,IC50,[1],1.5 µg/mL
same,IC50,[6],0.1 µg/mL
"[O-][N+]12CCCC/C=C\CC[C@]3(O)C=C(c4nccc5c4[nH]c4ccccc45)[C@H](CC1)[C@]1(C[C@@H]4/C=C\CCCC[N@+]4([O-])[C@H]13)C2 [Compound 13, 21, 27-N-oxamanzamine A]",IC50,[3],0.017 µg/mL
same,IC50,[2],0.067 µg/mL
"O=C1CCCN2[C@@H](CC1)C[C@]13CN4CCCC/C=C\CC[C@](O)(C=C(c5nccc6c5[nH]c5c(O)cccc56)C1CC4)[C@H]23 (some centres unmarked) [Compound 14, manzamine F]",IC50,[3],0.78 µg/mL
same,IC50,[1],6.5 µg/mL
"N/N=C1/CCCN2[C@@H](CC1)C[C@]13CN4CCCC/C=C\CC[C@](O)(C=C(c5nccc6c5[nH]c5c(O)cccc56)[C@@H]1CC4)[C@H]23 [Compound 15, Manzamine F-31-hydrazone]",IC50,[3],0.029 µg/mL
same,no toxicity against Vero cells at the highest tested concentration,[20],> 4.6 µg/mL
"Oc1cccc2c1[nH]c1c(C3=C[C@@]4(O)CC/C=C\CCCCN5CC[C@@H]3[C@]3(C[C@@H]6CC[C@H](O)CCCN6[C@H]34)C5)nccc12 [Compound 16, 31β-Hydroxymanzamine F]",P. falciparum (D6 clone) IC50,"[3]; chloroquine sensitive D6 clone, 72 h",did not improve the antimalarial activity
"CC[C@@]1(O)CCCN2[C@@H](CC1)C[C@]13CN4CCCC/C=C\CC[C@](O)(C=C(c5nccc6c5[nH]c5c(O)cccc56)[C@@H]1CC4)[C@H]23 [Compound 18, 31-Ethylmanzamine F]",IC50,[2],0.086 µg/mL
same,no toxicity against Vero cells at the highest tested concentration,[20],> 4.6 µg/mL
"COc1ccc2[nH]c3c(C4=C[C@@]5(O)CC/C=C\CCCCN6CC[C@@H]4[C@]4(C[C@@H]7/C=C\CCCCN7[C@H]45)C6)nccc3c2c1 [Compound 21a, 6-Methoxymanzamine A]",cytotoxicity (lactate dehydrogenase release) at highest concentration tested,[9],minimal cytotoxicity; also recorded: no toxicity
same,LDH LDH50,[9],>10 µM
"COC(=O)c1cc2c([nH]c3ccccc32)c(C2=C[C@@]3(O)CC/C=C\CCCCN4CC[C@@H]2[C@]2(C[C@@H]5/C=C\CCCCN5[C@H]23)C4)n1 [Compound 21b, Methyl manzamine A-3-carboxylate]",cytotoxicity (lactate dehydrogenase release) at highest concentration tested,[9],minimal cytotoxicity; also recorded: no toxicity
same,LDH LDH50,[9],>10 µM
